This note sets out measurements from patent US10597391B2, “Urea-containing isoxazole derivatives as FXR agonists and methods of use thereof” (Enanta Pharmaceuticals, Inc., priority 2016, dated 2020).

Where only a bound is given, the exact number is not on record here.

For the assay, the target named is T1, human FXR (NR1H4) (Homo sapiens, UniProt Q96RI1).
T1 sequence (Q96RI1 1-486): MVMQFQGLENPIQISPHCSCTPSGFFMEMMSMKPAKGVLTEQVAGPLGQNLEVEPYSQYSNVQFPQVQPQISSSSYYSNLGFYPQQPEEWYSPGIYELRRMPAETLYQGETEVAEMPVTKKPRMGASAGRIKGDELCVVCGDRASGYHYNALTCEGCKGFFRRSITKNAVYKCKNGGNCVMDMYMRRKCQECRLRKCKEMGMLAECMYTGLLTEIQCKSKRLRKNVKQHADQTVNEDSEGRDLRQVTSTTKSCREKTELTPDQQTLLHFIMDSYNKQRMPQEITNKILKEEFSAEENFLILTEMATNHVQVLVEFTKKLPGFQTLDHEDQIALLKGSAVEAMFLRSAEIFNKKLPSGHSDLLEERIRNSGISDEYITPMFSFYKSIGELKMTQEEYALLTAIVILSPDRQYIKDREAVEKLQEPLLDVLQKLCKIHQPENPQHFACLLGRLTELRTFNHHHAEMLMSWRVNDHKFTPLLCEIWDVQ
In words: Human FXR (NR1H4) Assay: Gal4 promoter driven luciferase reporter transactivation in CHO cells (Indigo Bioscience kit IB00601). The assay is classed as cell-based. Conditions: potency range, Human FXR (NR1H4) reporter assay in CHO cells; read-out: EC50. An excerpt: Human FXR (NR1H4) Assay Determination of a ligand mediated Gal4 promoter driven transactivation to quantify ligand binding mediated activation of FXR. FXR Reporter Assay kit purchased from Indigo Bioscience (Catalogue number: IB00601) to determine the potency and efficacy of compounds that can induce FXR activation. The principle application of this reporter assay system is to quantify functional activity of human FXR. The assay utilizes non-human mammalian cells, CHO (Chinese hamster ovary) cells engineered to express human NR1H4 protein (referred to as FXR). Reporter cells also incorporate the cDNA encoding beetle luciferase which catalyzes the substrates and yields photon emission. Luminescence intensity of the reaction is quantified using a plate-reading luminometer, Envision. Reporter Cells include the luciferase reporter gene functionally linked to an FXR responsive promoter. Thus, quantifying changes in luciferase expression in the treated reporter cells provides a sensitive surrogate measure of the changes in FXR activity. […] The assay is according to the manufacturer's instructions. […] Retrieve Reporter Cells from −80° C. storage. Perform a rapid thaw of the frozen cells by transferring a 10 ml volume of 37° C. cell recovery medium into the tube of frozen cells. […] Retrieve the tube of Reporter Cell Suspension from the water bath. […] Dispense 90 μl of cell suspension into each well of the 96-well Assay Plate. Transfer the plate into 37° C. incubator, allowing the cells adherent to the bottom of the well. Dilute compounds in Dilution Plate (DP), and administrate to cells at Assay Plate (AP). […] Cells were incubated for additional 22 hours before luciferase activities were measured. Thirty minutes before intending to quantify FXR activity, remove Detection Substrate and Detection Buffer from the refrigerator and place them in a low-light area so that they may equilibrate to room temperature. Remove the plate's lid and discard all media contents by ejecting it into an appropriate waste container. Gently tap the inverted plate onto a clean absorbent paper towel to remove residual droplets. Cells will remain tightly adhered to well bottoms. Add 100 μl of luciferase detection reagent to each well of the assay plate. Allow the assay plate to rest at room temperature for at least 5 minutes following the addition of LDR. Set the instrument (Envision) to perform a single 5 second “plate shake” prior to reading the first assay well. Read time may be 0.5 second (500 mSec) per well.
For `O=C(Nc1cccc(F)c1)N1C2CCC1CC(OCc1c(-c3c(Cl)cccc3Cl)noc1C1CC1)C2` (stereo not shown) [Example 1], the EC50 was under 10 nM.
For `N#Cc1cccc(NC(=O)N2C3CCC2CC(OCc2c(-c4c(Cl)cccc4Cl)noc2C2CC2)C3)c1` (stereo not shown) [Example 3] the value was under 10 nM.
Take `CC(C)(C)c1cccc(NC(=O)N2C3CCC2CC(OCc2c(-c4c(Cl)cccc4Cl)noc2C2CC2)C3)c1` (stereo not shown) [Example 4]: the half-maximal effective concentration (EC50) lay in the range of 10 to 100 nM.
For `CN1CCC(c2cccc(NC(=O)N3C4CCC3CC(OCc3c(-c5c(Cl)cccc5Cl)noc3C3CC3)C4)c2)CC1` (stereo not shown) [Example 5] the value was 10 to 100 nM.
As for `O=C(Nc1ccccc1C(F)(F)F)N1C2CCC1CC(OCc1c(-c3c(Cl)cccc3Cl)noc1C1CC1)C2` (stereo not shown) [Example 6], the figure is 100 to 1000 nM; as for `O=C(Nc1ccccc1F)N1C2CCC1CC(OCc1c(-c3c(Cl)cccc3Cl)noc1C1CC1)C2` (stereo not shown) [Example 7], 10 to 100 nM; as for `O=C(Nc1ccc(C(F)(F)F)cc1)N1C2CCC1CC(OCc1c(-c3c(Cl)cccc3Cl)noc1C1CC1)C2` (stereo not shown) [Example 8], 100 to 1000 nM.
For `N#Cc1ccc(NC(=O)N2C3CCC2CC(OCc2c(-c4c(Cl)cccc4Cl)noc2C2CC2)C3)cc1` (stereo not shown) [Example 9] the value was 10 to 100 nM.
As to `O=C(Nc1cc(F)c(F)c(F)c1)N1C2CCC1CC(OCc1c(-c3c(Cl)cccc3Cl)noc1C1CC1)C2` (stereo not shown) [Example 10], the concentration giving a half-maximal response (EC50) was 10 to 100 nM.
For `O=C(Nc1cc(F)cc(C(F)(F)F)c1)N1C2CCC1CC(OCc1c(-c3c(Cl)cccc3Cl)noc1C1CC1)C2` (stereo not shown) [Example 11] the value was under 10 nM.
For `Cn1cc(-c2cccc(NC(=O)N3C4CCC3CC(OCc3c(-c5c(Cl)cccc5Cl)noc3C3CC3)C4)c2)cn1` (stereo not shown) [Example 13] the value was under 10 nM; for `O=C(Nc1cc(-c2cccnc2)cc(C(F)(F)F)c1)N1C2CCC1CC(OCc1c(-c3c(Cl)cccc3Cl)noc1C1CC1)C2` (stereo not shown) [Example 14], under 10 nM.
For `O=C(Nc1cccnc1)N1C2CCC1CC(OCc1c(-c3c(Cl)cccc3Cl)noc1C1CC1)C2` (stereo not shown) [Example 15] the value was under 10 nM.
As for `O=C(Nc1ccccn1)N1C2CCC1CC(OCc1c(-c3c(Cl)cccc3Cl)noc1C1CC1)C2` (stereo not shown) [Example 16], the EC50 lay in the range of 100 to 1000 nM.
Consider `O=C(Nc1ccncc1)N1C2CCC1CC(OCc1c(-c3c(Cl)cccc3Cl)noc1C1CC1)C2` (stereo not shown) [Example 17], for which the half-maximal effective concentration (EC50) fell in the range of 10 to 100 nM.
As for `O=C(Nc1cncc(C(F)(F)F)c1)N1C2CCC1CC(OCc1c(-c3c(Cl)cccc3Cl)noc1C1CC1)C2` (stereo not shown) [Example 18], the EC50 was under 10 nM.
As for `O=C(Nc1cccc2ccccc12)N1C2CCC1CC(OCc1c(-c3c(Cl)cccc3Cl)noc1C1CC1)C2` (stereo not shown) [Example 19], the figure is 10 to 100 nM; as for `O=C(Nc1ccc2ccccc2c1)N1C2CCC1CC(OCc1c(-c3c(Cl)cccc3Cl)noc1C1CC1)C2` (stereo not shown) [Example 20], 10 to 100 nM.
`O=C(Nc1cnc2ccccc2c1)N1C2CCC1CC(OCc1c(-c3c(Cl)cccc3Cl)noc1C1CC1)C2` (stereo not shown) [Example 21]: the half-maximal effective concentration (EC50) was in the range of 10 to 100 nM.
`O=C(Nc1ccc2ncccc2c1)N1C2CCC1CC(OCc1c(-c3c(Cl)cccc3Cl)noc1C1CC1)C2` (stereo not shown) [Example 22]: the concentration for a half-maximal effect (EC50) was under 10 nM.
As for `O=C(Nc1nc2ccccc2s1)N1C2CCC1CC(OCc1c(-c3c(Cl)cccc3Cl)noc1C1CC1)C2` (stereo not shown) [Example 23], the figure is 10 to 100 nM; as for `NS(=O)(=O)c1cccc(NC(=O)N2C3CCC2CC(OCc2c(-c4c(Cl)cccc4Cl)noc2C2CC2)C3)c1` (stereo not shown) [Example 24], 100 to 1000 nM; as for `CN(C)S(=O)(=O)c1cccc(NC(=O)N2C3CCC2CC(OCc2c(-c4c(Cl)cccc4Cl)noc2C2CC2)C3)c1` (stereo not shown) [Example 25], under 10 nM.
Turning to `O=C(NC1CCCCC1)N1C2CCC1CC(OCc1c(-c3c(Cl)cccc3Cl)noc1C1CC1)C2` (stereo not shown) [Example 30], the EC50 was in the range of 10 to 100 nM.
As for `N#Cc1cccc(NC(=O)N2C3CCC2CC(NCc2c(-c4c(Cl)cccc4Cl)noc2C2CC2)C3)c1` (stereo not shown) [Example 93], the figure is 10 to 100 nM; as for `O=C(Nc1cccc(C(F)(F)F)c1)N1C2CCC1CC(NCc1c(-c3ccccc3OC(F)(F)F)noc1C1CC1)C2` (stereo not shown) [Example 121], 10 to 100 nM; as for `CCOC(=O)c1cccc(NC(=O)N2C3CCC2CC(OCc2c(-c4c(Cl)cccc4Cl)noc2C2CC2)C3)c1` (stereo not shown) [Example 181], under 10 nM.
With `CCOC(=O)c1ccc(NC(=O)N2C3CCC2CC(OCc2c(-c4c(Cl)cccc4Cl)noc2C2CC2)C3)cc1` (stereo not shown) [Example 182], the EC50 lay in the range of 10 to 100 nM.
As to `O=C(O)c1cccc(NC(=O)N2C3CCC2CC(OCc2c(-c4c(Cl)cccc4Cl)noc2C2CC2)C3)c1` (stereo not shown) [Example 183], the EC50 fell in the range of 100 to 1000 nM.
As for `O=C(O)c1ccc(NC(=O)N2C3CCC2CC(OCc2c(-c4c(Cl)cccc4Cl)noc2C2CC2)C3)cc1` (stereo not shown) [Example 184], the figure is under 10 nM; as for `O=C(Nc1cccc(-c2nnn[nH]2)c1)N1C2CC[C@H]1CC(OCc1c(-c3c(Cl)cccc3Cl)noc1C1CC1)C2` (stereo partly shown) [Example 185], 100 to 1000 nM.
As for `Cn1nnnc1-c1cccc(NC(=O)N2C3CCC2CC(OCc2c(-c4c(Cl)cccc4Cl)noc2C2CC2)C3)c1` (stereo not shown) [Example 186], the figure is 10 to 100 nM.
For `Cn1nnc(-c2cccc(NC(=O)N3C4CCC3CC(OCc3c(-c5c(Cl)cccc5Cl)noc3C3CC3)C4)c2)n1` (stereo not shown) [Example 187] the value was 10 to 100 nM.
With `O=C(Nc1ccc(C(F)F)cc1)N1C2CCC1CC(OCc1c(-c3c(Cl)cccc3Cl)noc1C1CC1)C2` (stereo not shown) [Example 189], the EC50 was 10 to 100 nM.
For `COC(=O)c1ccc(NC(=O)N2C3CCC2CC(OCc2c(-c4c(Cl)cccc4Cl)noc2C2CC2)C3)c(OC)c1` (stereo not shown) [Example 190] the value was 10 to 100 nM; for `COc1cc(C(=O)O)ccc1NC(=O)N1C2CCC1CC(OCc1c(-c3c(Cl)cccc3Cl)noc1C1CC1)C2` (stereo not shown) [Example 192], under 10 nM; for `COC(=O)c1ccc(NC(=O)N2C3CCC2CC(OCc2c(-c4c(Cl)cccc4Cl)noc2C2CC2)C3)cc1C(F)(F)F` (stereo not shown) [Example 194], under 10 nM.
On to `O=C(O)c1ccc(NC(=O)N2C3CCC2CC(OCc2c(-c4c(Cl)cccc4Cl)noc2C2CC2)C3)cc1C(F)(F)F` (stereo not shown) [Example 195], for which the concentration giving a half-maximal response (EC50) is 10 to 100 nM.
For `COC(=O)c1ccc(NC(=O)N2C3CCC2CC(OCc2c(-c4c(Cl)cccc4Cl)noc2C2CC2)C3)cc1F` (stereo not shown) [Example 196] the value was under 10 nM; for `O=C(O)c1ccc(NC(=O)N2C3CCC2CC(OCc2c(-c4c(Cl)cccc4Cl)noc2C2CC2)C3)cc1F` (stereo not shown) [Example 197], 10 to 100 nM.
As for `COC(=O)c1c(F)cc(NC(=O)N2C3CCC2CC(OCc2c(-c4c(Cl)cccc4Cl)noc2C2CC2)C3)cc1F` (stereo not shown) [Example 198], the figure is under 10 nM; as for `O=C(O)c1c(F)cc(NC(=O)N2C3CCC2CC(OCc2c(-c4c(Cl)cccc4Cl)noc2C2CC2)C3)cc1F` (stereo not shown) [Example 199], 100 to 1000 nM; as for `COC(=O)c1ccc(NC(=O)N2C3CCC2CC(OCc2c(-c4c(Cl)cccc4Cl)noc2C2CC2)C3)cc1-c1ccccc1` (stereo not shown) [Example 200], under 10 nM.
As for `O=C(O)c1ccc(NC(=O)N2C3CCC2CC(OCc2c(-c4c(Cl)cccc4Cl)noc2C2CC2)C3)cc1-c1ccccc1` (stereo not shown) [Example 201], the figure is under 10 nM; as for `O=C(O)c1cnc2ccc(NC(=O)N3C4CCC3CC(OCc3c(-c5c(Cl)cccc5Cl)noc3C3CC3)C4)cc2c1` (stereo not shown) [Example 211], 100 to 1000 nM; as for `COC(=O)c1ccc(NC(=O)N2C3CCC2CC(OCc2c(-c4c(Cl)cccc4Cl)noc2C2CC2)C3)cn1` (stereo not shown) [Example 212], under 10 nM.
Consider `O=C(O)c1ccc(NC(=O)N2C3CCC2CC(OCc2c(-c4c(Cl)cccc4Cl)noc2C2CC2)C3)cn1` (stereo not shown) [Example 213], for which the 50% effective concentration (EC50) was in the range of 100 to 1000 nM.
As for `O=C(c1cccc(NC(=O)N2C3CCC2CC(OCc2c(-c4c(Cl)cccc4Cl)noc2C2CC2)C3)c1)N1CCOCC1` (stereo not shown) [Example 214], the figure is 10 to 100 nM; as for `CN(C)C(=O)c1cccc(NC(=O)N2C3CCC2CC(OCc2c(-c4c(Cl)cccc4Cl)noc2C2CC2)C3)c1` (stereo not shown) [Example 215], under 10 nM.
